From patent publication US11697648B2, “Fused pyrimidine pyridinone compounds as JAK inhibitors” (THERAVANCE BIOPHARMA R&D IP, LLC, priority 2019, dated 2023)

target: JAK1 (Homo sapiens (Human), UniProt P23458); test: Biochemical JAK1 kinase assay (LanthaScreen); conditions: not given
Method in brief: (§1)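 GST-JAK + GFP-STAT1 peptide, HEPES pH 7.5/MgCl2/EGTA/Brij-35 buffer; cpd preincubation 1 h RT; ATP start, 1 h RT; stop with 10 mM EDTA + 2 nM Tb-anti-pSTAT1; TR-FRET 520/495. 4-parameter IC50 → pKi (Cheng-Prusoff).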

JAK1, sequence (P23458 whole entry): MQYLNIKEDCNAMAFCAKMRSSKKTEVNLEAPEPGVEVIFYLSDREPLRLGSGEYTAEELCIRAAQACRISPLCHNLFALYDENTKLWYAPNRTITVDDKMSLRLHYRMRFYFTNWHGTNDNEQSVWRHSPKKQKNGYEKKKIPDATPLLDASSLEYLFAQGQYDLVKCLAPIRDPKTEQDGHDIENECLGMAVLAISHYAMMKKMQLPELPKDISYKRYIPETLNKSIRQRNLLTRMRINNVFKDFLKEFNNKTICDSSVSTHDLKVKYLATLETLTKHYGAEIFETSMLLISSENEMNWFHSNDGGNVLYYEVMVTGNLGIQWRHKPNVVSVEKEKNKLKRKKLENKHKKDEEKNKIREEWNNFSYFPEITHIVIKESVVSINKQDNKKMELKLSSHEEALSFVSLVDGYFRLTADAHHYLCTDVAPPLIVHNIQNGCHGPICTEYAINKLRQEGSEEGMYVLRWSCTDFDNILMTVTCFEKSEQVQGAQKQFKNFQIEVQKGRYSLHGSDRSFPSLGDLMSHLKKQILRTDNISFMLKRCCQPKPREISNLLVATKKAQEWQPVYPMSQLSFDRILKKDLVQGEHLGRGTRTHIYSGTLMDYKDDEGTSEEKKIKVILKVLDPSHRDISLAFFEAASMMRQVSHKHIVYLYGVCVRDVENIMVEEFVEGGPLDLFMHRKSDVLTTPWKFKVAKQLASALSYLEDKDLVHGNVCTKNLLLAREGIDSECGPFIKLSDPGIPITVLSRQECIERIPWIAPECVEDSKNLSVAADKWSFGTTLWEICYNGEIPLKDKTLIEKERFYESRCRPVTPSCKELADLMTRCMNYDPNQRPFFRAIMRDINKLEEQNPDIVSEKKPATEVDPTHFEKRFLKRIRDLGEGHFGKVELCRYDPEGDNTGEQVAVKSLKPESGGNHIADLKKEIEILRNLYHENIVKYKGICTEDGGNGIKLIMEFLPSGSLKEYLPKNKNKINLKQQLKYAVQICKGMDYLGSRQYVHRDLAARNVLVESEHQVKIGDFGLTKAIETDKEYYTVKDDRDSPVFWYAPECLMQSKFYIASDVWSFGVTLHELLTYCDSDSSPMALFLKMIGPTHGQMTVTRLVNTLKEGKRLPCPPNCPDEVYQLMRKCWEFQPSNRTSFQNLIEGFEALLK

SMILES	JAK 1 (pKi)
C=CC(=O)N1CCN(CCn2c(=O)ccc3cnc(Nc4cnn(-c5ccccc5)c4)nc32)[C@@H](CC)C1 [Example 195]	E (E represents a pKi value of 7 or below (Ki of 100 nM or above))
C=CC(=O)N1CCN(C(C)(C)Cn2c(=O)ccc3cnc(Nc4ccc(N5CCN(C(C)=O)CC5)cc4)nc32)CC1 [Example 200]	E (E represents a pKi value of 7 or below (Ki of 100 nM or above))
C=CC(=O)N1CCN(CCn2c(=O)ccc3cnc(Nc4ccc(N5CCN(CC)CC5)cc4)nc32)CC1 [Example 204]	E (E represents a pKi value of 7 or below (Ki of 100 nM or above))
C=CC(=O)N1CCN(CCn2c(=O)ccc3cnc(Nc4ccc(N5CCN(S(=O)(=O)N(C)C)CC5)cc4)nc32)CC1 [Example 211]	E (E represents a pKi value of 7 or below (Ki of 100 nM or above))
C=CC(=O)N1CCN(CCn2c(=O)ccc3cnc(Nc4ccc(N5CCN(C(=O)CC(C)C)CC5)cc4)nc32)CC1 [Example 212]	E (E represents a pKi value of 7 or below (Ki of 100 nM or above))
C=CC(=O)N1CCN(CCn2c(=O)ccc3cnc(Nc4ccc(N5CCN(C(=O)C(C)C)CC5)cc4)nc32)CC1 [Example 213]	E (E represents a pKi value of 7 or below (Ki of 100 nM or above))
C=CC(=O)N1CCN(CCn2c(=O)ccc3cnc(Nc4ccc(N5CCN(C(=S)N(C)C)CC5)cc4)nc32)CC1 [Example 214]	E (E represents a pKi value of 7 or below (Ki of 100 nM or above))
C=CC(=O)N1CC(CCn2c(=O)ccc3cnc(Nc4cccc(C(C)N5CCN(C(=O)N(C)C)CC5)c4)nc32)C1 (stereo not drawn) [Example 215]	E (E represents a pKi value of 7 or below (Ki of 100 nM or above))

target: JAK2 (Homo sapiens (Human), UniProt O60674); test: Biochemical JAK2 kinase assay (LanthaScreen); conditions: not given
Sequence (O60674 whole entry): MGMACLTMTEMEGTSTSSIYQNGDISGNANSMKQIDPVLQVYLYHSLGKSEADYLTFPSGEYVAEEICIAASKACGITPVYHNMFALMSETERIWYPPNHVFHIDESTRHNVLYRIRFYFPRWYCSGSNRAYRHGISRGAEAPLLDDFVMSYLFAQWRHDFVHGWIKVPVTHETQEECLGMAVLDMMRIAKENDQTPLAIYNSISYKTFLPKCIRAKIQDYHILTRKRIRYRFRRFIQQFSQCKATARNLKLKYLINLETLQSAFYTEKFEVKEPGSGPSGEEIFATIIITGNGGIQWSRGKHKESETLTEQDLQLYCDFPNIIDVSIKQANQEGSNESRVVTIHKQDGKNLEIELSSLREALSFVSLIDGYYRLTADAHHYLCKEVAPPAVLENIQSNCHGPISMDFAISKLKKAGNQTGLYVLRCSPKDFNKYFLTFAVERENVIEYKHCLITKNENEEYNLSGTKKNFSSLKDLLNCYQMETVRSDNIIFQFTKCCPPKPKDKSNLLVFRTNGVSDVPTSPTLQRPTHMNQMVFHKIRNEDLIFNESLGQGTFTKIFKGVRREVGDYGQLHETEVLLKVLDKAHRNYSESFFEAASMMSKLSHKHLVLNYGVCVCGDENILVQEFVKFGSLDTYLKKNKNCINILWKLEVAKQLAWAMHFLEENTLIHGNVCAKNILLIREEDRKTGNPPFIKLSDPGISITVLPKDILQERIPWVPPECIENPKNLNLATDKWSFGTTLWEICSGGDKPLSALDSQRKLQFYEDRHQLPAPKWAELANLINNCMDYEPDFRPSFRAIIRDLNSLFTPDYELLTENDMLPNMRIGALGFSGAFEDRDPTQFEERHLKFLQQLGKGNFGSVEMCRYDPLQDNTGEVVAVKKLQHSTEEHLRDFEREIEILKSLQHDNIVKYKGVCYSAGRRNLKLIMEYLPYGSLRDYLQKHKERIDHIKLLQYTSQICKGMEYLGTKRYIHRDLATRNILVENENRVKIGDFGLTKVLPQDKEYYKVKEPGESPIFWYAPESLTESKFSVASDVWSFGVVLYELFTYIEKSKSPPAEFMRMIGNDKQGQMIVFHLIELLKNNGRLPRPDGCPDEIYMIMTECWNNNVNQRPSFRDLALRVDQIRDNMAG
Method in brief: as §1

SMILES	JAK 2 (pKi)
C=CC(=O)N1CCN(CCn2c(=O)ccc3cnc(Nc4cnn(-c5ccccc5)c4)nc32)[C@@H](CC)C1 [Example 195]	E (E represents a pKi value of 7 or below (Ki of 100 nM or above))
C=CC(=O)N1CCN(C(C)(C)Cn2c(=O)ccc3cnc(Nc4ccc(N5CCN(C(C)=O)CC5)cc4)nc32)CC1 [Example 200]	E (E represents a pKi value of 7 or below (Ki of 100 nM or above))
C=CC(=O)N1CCN(CCn2c(=O)ccc3cnc(Nc4ccc(N5CCN(CC)CC5)cc4)nc32)CC1 [Example 204]	E (E represents a pKi value of 7 or below (Ki of 100 nM or above))
C=CC(=O)N1CCN(CCn2c(=O)ccc3cnc(Nc4ccc(N5CCN(S(=O)(=O)N(C)C)CC5)cc4)nc32)CC1 [Example 211]	E (E represents a pKi value of 7 or below (Ki of 100 nM or above))
C=CC(=O)N1CCN(CCn2c(=O)ccc3cnc(Nc4ccc(N5CCN(C(=O)CC(C)C)CC5)cc4)nc32)CC1 [Example 212]	E (E represents a pKi value of 7 or below (Ki of 100 nM or above))
C=CC(=O)N1CCN(CCn2c(=O)ccc3cnc(Nc4ccc(N5CCN(C(=O)C(C)C)CC5)cc4)nc32)CC1 [Example 213]	E (E represents a pKi value of 7 or below (Ki of 100 nM or above))
C=CC(=O)N1CCN(CCn2c(=O)ccc3cnc(Nc4ccc(N5CCN(C(=S)N(C)C)CC5)cc4)nc32)CC1 [Example 214]	E (E represents a pKi value of 7 or below (Ki of 100 nM or above))
C=CC(=O)N1CC(CCn2c(=O)ccc3cnc(Nc4cccc(C(C)N5CCN(C(=O)N(C)C)CC5)c4)nc32)C1 (stereo not drawn) [Example 215]	E (E represents a pKi value of 7 or below (Ki of 100 nM or above))

target: JAK3 (Homo sapiens (Human), UniProt P52333); test: Biochemical JAK3 kinase assay (LanthaScreen); conditions: not given
Sequence (P52333 whole entry): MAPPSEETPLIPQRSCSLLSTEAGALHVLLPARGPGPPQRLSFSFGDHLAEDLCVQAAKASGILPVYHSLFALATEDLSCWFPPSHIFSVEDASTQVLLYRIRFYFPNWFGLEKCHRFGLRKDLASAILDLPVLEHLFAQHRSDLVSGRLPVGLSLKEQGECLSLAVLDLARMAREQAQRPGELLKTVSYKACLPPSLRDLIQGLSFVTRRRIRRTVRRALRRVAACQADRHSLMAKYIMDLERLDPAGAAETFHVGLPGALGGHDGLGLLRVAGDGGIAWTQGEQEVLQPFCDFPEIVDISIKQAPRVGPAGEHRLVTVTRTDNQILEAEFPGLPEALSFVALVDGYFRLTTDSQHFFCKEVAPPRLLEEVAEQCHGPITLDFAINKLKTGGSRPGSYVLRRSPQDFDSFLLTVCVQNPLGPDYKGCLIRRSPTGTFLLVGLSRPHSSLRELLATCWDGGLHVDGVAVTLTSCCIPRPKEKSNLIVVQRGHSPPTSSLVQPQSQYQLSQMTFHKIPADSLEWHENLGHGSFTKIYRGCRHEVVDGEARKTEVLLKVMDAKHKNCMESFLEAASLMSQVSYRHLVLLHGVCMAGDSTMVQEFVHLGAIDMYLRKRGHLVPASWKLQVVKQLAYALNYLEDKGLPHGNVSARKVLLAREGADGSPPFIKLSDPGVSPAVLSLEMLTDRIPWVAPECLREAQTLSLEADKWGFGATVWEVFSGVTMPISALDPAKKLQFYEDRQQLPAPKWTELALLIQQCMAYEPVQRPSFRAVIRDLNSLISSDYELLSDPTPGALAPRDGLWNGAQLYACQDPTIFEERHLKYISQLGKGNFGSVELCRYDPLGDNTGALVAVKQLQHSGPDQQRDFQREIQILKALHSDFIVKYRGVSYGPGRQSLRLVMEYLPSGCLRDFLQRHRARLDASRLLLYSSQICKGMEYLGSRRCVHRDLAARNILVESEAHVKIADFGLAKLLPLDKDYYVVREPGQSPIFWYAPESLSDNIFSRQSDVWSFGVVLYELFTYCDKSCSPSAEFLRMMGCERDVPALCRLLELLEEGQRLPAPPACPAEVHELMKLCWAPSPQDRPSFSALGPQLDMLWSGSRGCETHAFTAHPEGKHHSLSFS
Method in brief: as §1

SMILES	JAK 3 (pKi)
C=CC(=O)N1CCN(CCn2c(=O)ccc3cnc(Nc4cnn(-c5ccccc5)c4)nc32)[C@@H](CC)C1 [Example 195]	B (B represents pKi value between 9 and 10 (Ki between 1 nM and 0.1 nM))
C=CC(=O)N1CCN(C(C)(C)Cn2c(=O)ccc3cnc(Nc4ccc(N5CCN(C(C)=O)CC5)cc4)nc32)CC1 [Example 200]	C (C represents a pKi value between 8 and 9 (Ki between 10 nM and 1 nM))
C=CC(=O)N1CCN(CCn2c(=O)ccc3cnc(Nc4ccc(N5CCN(CC)CC5)cc4)nc32)CC1 [Example 204]	A (A represents a pKi value≥10 (Ki≤0.1 nM))
C=CC(=O)N1CCN(CCn2c(=O)ccc3cnc(Nc4ccc(N5CCN(S(=O)(=O)N(C)C)CC5)cc4)nc32)CC1 [Example 211]	A (A represents a pKi value≥10 (Ki≤0.1 nM))
C=CC(=O)N1CCN(CCn2c(=O)ccc3cnc(Nc4ccc(N5CCN(C(=O)CC(C)C)CC5)cc4)nc32)CC1 [Example 212]	A (A represents a pKi value≥10 (Ki≤0.1 nM))
C=CC(=O)N1CCN(CCn2c(=O)ccc3cnc(Nc4ccc(N5CCN(C(=O)C(C)C)CC5)cc4)nc32)CC1 [Example 213]	A (A represents a pKi value≥10 (Ki≤0.1 nM))
C=CC(=O)N1CCN(CCn2c(=O)ccc3cnc(Nc4ccc(N5CCN(C(=S)N(C)C)CC5)cc4)nc32)CC1 [Example 214]	B (B represents pKi value between 9 and 10 (Ki between 1 nM and 0.1 nM))
C=CC(=O)N1CC(CCn2c(=O)ccc3cnc(Nc4cccc(C(C)N5CCN(C(=O)N(C)C)CC5)c4)nc32)C1 (stereo not drawn) [Example 215]	B (B represents pKi value between 9 and 10 (Ki between 1 nM and 0.1 nM))

same assay, conditions: selectivity JAK3 over JAK1, difference of pKi

SMILES	JAK3 (pKi)-JAK1 (pKi)
C=CC(=O)N1CCN(CCn2c(=O)ccc3cnc(Nc4cnn(-c5ccccc5)c4)nc32)[C@@H](CC)C1 [Example 195]	A (A represents a value of 3 or above)
C=CC(=O)N1CCN(C(C)(C)Cn2c(=O)ccc3cnc(Nc4ccc(N5CCN(C(C)=O)CC5)cc4)nc32)CC1 [Example 200]	B (B represents a value of 2.5 to 3)
C=CC(=O)N1CCN(CCn2c(=O)ccc3cnc(Nc4ccc(N5CCN(CC)CC5)cc4)nc32)CC1 [Example 204]	A (A represents a value of 3 or above)
C=CC(=O)N1CCN(CCn2c(=O)ccc3cnc(Nc4ccc(N5CCN(S(=O)(=O)N(C)C)CC5)cc4)nc32)CC1 [Example 211]	A (A represents a value of 3 or above)
C=CC(=O)N1CCN(CCn2c(=O)ccc3cnc(Nc4ccc(N5CCN(C(=O)CC(C)C)CC5)cc4)nc32)CC1 [Example 212]	A (A represents a value of 3 or above)
C=CC(=O)N1CCN(CCn2c(=O)ccc3cnc(Nc4ccc(N5CCN(C(=O)C(C)C)CC5)cc4)nc32)CC1 [Example 213]	A (A represents a value of 3 or above)
C=CC(=O)N1CCN(CCn2c(=O)ccc3cnc(Nc4ccc(N5CCN(C(=S)N(C)C)CC5)cc4)nc32)CC1 [Example 214]	A (A represents a value of 3 or above)
C=CC(=O)N1CC(CCn2c(=O)ccc3cnc(Nc4cccc(C(C)N5CCN(C(=O)N(C)C)CC5)c4)nc32)C1 (stereo not drawn) [Example 215]	A (A represents a value of 3 or above)

target: Tyk2 (Homo sapiens (Human), UniProt P29597); test: Biochemical Tyk2 kinase assay (LanthaScreen); conditions: not given
Sequence (P29597 whole entry): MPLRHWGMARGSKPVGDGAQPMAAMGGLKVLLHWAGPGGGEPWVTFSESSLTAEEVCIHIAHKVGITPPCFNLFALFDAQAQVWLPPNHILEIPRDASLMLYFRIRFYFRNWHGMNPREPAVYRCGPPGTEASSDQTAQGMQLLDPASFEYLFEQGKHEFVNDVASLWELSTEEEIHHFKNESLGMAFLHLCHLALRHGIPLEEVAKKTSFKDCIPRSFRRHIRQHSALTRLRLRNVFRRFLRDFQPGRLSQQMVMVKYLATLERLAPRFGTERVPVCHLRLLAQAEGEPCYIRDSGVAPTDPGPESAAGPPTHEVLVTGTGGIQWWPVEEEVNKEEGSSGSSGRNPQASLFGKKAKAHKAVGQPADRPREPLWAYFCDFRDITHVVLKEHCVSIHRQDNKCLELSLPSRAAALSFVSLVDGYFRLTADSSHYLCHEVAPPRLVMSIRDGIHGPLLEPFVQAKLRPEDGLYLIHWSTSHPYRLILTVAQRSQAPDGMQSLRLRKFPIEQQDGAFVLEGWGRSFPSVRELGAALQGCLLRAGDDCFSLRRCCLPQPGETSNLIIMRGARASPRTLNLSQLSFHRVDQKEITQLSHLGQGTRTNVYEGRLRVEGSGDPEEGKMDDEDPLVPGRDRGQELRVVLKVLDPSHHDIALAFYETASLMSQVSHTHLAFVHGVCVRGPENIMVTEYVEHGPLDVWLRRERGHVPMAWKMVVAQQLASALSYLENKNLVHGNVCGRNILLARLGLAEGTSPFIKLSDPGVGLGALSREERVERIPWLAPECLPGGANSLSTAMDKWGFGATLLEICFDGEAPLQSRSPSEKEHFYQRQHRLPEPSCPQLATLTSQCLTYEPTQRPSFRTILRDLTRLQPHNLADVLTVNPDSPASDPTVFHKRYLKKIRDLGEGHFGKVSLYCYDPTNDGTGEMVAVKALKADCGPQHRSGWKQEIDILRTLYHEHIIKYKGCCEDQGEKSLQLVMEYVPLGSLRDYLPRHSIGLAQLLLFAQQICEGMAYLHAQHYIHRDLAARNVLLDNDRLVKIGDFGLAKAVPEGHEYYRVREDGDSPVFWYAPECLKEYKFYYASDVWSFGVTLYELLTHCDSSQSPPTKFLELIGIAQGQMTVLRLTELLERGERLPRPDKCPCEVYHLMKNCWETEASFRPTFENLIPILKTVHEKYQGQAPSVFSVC
Method in brief: as §1

SMILES	Tyk 2 (pKi)
C=CC(=O)N1CCN(CCn2c(=O)ccc3cnc(Nc4cnn(-c5ccccc5)c4)nc32)[C@@H](CC)C1 [Example 195]	E (E represents a pKi value of 7 or below (Ki of 100 nM or above))
C=CC(=O)N1CCN(C(C)(C)Cn2c(=O)ccc3cnc(Nc4ccc(N5CCN(C(C)=O)CC5)cc4)nc32)CC1 [Example 200]	E (E represents a pKi value of 7 or below (Ki of 100 nM or above))
C=CC(=O)N1CCN(CCn2c(=O)ccc3cnc(Nc4ccc(N5CCN(CC)CC5)cc4)nc32)CC1 [Example 204]	E (E represents a pKi value of 7 or below (Ki of 100 nM or above))
C=CC(=O)N1CCN(CCn2c(=O)ccc3cnc(Nc4ccc(N5CCN(S(=O)(=O)N(C)C)CC5)cc4)nc32)CC1 [Example 211]	E (E represents a pKi value of 7 or below (Ki of 100 nM or above))
C=CC(=O)N1CCN(CCn2c(=O)ccc3cnc(Nc4ccc(N5CCN(C(=O)CC(C)C)CC5)cc4)nc32)CC1 [Example 212]	E (E represents a pKi value of 7 or below (Ki of 100 nM or above))
C=CC(=O)N1CCN(CCn2c(=O)ccc3cnc(Nc4ccc(N5CCN(C(=O)C(C)C)CC5)cc4)nc32)CC1 [Example 213]	E (E represents a pKi value of 7 or below (Ki of 100 nM or above))
C=CC(=O)N1CCN(CCn2c(=O)ccc3cnc(Nc4ccc(N5CCN(C(=S)N(C)C)CC5)cc4)nc32)CC1 [Example 214]	E (E represents a pKi value of 7 or below (Ki of 100 nM or above))
C=CC(=O)N1CC(CCn2c(=O)ccc3cnc(Nc4cccc(C(C)N5CCN(C(=O)N(C)C)CC5)c4)nc32)C1 (stereo not drawn) [Example 215]	E (E represents a pKi value of 7 or below (Ki of 100 nM or above))

tested on: IL-2 stimulated STAT5 phosphorylation in Tall-1 human T cell line (JAK3); test: Cellular JAK3 potency assay: inhibition of IL-2 stimulated pSTAT5 in Tall-1 T cells; assay type: cell-based; conditions: IL-2 stimulated pSTAT5, Tall-1 T cells
Method in brief: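 Tall-1 cells, 45,000 per well, preincubated 1 hour with compound at 37 °C, then stimulated 30 minutes with IL-2 at 300 ng/ml final. pSTAT5 (Tyr694/699) in lysates quantified by AlphaLISA SureFire Ultra. pIC50 derived from inhibition curves, given as mean with SD.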

SMILES	Tall-1 (pIC50)
C=CC(=O)N1CCN(CCn2c(=O)ccc3cnc(Nc4cnn(-c5ccccc5)c4)nc32)[C@@H](CC)C1 [Example 195]	B (B represents a pC50 value between 6.7 (included) and 7.5 (IC50 between 200 nM and 32 nM))
C=CC(=O)N1CCN(C(C)(C)Cn2c(=O)ccc3cnc(Nc4ccc(N5CCN(C(C)=O)CC5)cc4)nc32)CC1 [Example 200]	C (C represents a pIC50 value between 6 and 6.7 (IC50 between 1 μM and 200 nM))
C=CC(=O)N1CCN(CCn2c(=O)ccc3cnc(Nc4ccc(N5CCN(CC)CC5)cc4)nc32)CC1 [Example 204]	A (A represents a pIC50 value≥7.5 (IC50≤32 nM))
C=CC(=O)N1CCN(CCn2c(=O)ccc3cnc(Nc4ccc(N5CCN(S(=O)(=O)N(C)C)CC5)cc4)nc32)CC1 [Example 211]	B (B represents a pC50 value between 6.7 (included) and 7.5 (IC50 between 200 nM and 32 nM))
C=CC(=O)N1CCN(CCn2c(=O)ccc3cnc(Nc4ccc(N5CCN(C(=O)CC(C)C)CC5)cc4)nc32)CC1 [Example 212]	B (B represents a pC50 value between 6.7 (included) and 7.5 (IC50 between 200 nM and 32 nM))
C=CC(=O)N1CCN(CCn2c(=O)ccc3cnc(Nc4ccc(N5CCN(C(=O)C(C)C)CC5)cc4)nc32)CC1 [Example 213]	B (B represents a pC50 value between 6.7 (included) and 7.5 (IC50 between 200 nM and 32 nM))
C=CC(=O)N1CCN(CCn2c(=O)ccc3cnc(Nc4ccc(N5CCN(C(=S)N(C)C)CC5)cc4)nc32)CC1 [Example 214]	B (B represents a pC50 value between 6.7 (included) and 7.5 (IC50 between 200 nM and 32 nM))
C=CC(=O)N1CC(CCn2c(=O)ccc3cnc(Nc4cccc(C(C)N5CCN(C(=O)N(C)C)CC5)c4)nc32)C1 (stereo not drawn) [Example 215]	B (B represents a pC50 value between 6.7 (included) and 7.5 (IC50 between 200 nM and 32 nM))
